Measurements taken from patent publication US11458175B2, “Composition comprising Lactobacillus plantarum CJLP475 strain and Lactobacillus plantarum CJLP243 strain and use thereof” (CJ CHEILJEDANG CORPORATION, priority 2018, dated 2022).

Experiments:
[1] = test system: porcine epidemic diarrhea virus (PEDV, SM98 or KPEDV9 strain); assay: Inhibitory effect against viral infection, PBMC culture broth on IPEC-J2 cells; type: cell-based; settings: PBMC culture broth on IPEC-J2, PED virus 100 TCID50/mL, 48 hours
Method: In order to measure the inhibitory effect of the composition including the Lactobacillus plantarum CJLP475 strain and the Lactobacillus plantarum CJLP243 strain against viral infection, porcine epidemic diarrhea virus (PEDV, SM98 or KPEDV9 strain) was prepared. Specifically, the virus was proliferated in Vero cells (CCL-81, kidney epithelial cells extracted from Chlorocebus), and MEM (Eagle's Minimum Essential Medium, Gibco BRL, USA), heat-inactivated 10% FBS (fetal bovine serum, v/v) and 1% (v/v) penicillin/streptomycin were as the media for culturing Vero cells. The Vero cells were incubated as a monolayer, washed twice with the media, and then all the solutions were removed. The virus was mixed at 0.1 MOI (multiplicity of infection) level in FBS-free MEM containing trypsin treated with 5 μg/ml TPCK (N-tosyl-L-phenylalanine chloromethyl ketone), treated with a minimal volume of the prepared culture cells, and then incubated in a 37° C. cell incubator containing 5% CO2 for 2 to 3 days.
The viral infection was determined by the formation of virus syncytia. […] Subsequently, the cells were added with a culture broth, in which the virus was subjected to a 2-fold serial dilution, and incubated for 24 to 48 hours to confirm viral infection, and the virus titer was calculated by the Reed & Muench method. […]

sows = assay: Effect on immunity and colostrum of sows (IgA and IgG ELISA); type: in vivo; settings: vs control; for total IgA content in the serum of sows / total IgG content in the serum of sows: sows fed 10^10 to 10^11 CFU per day for 4 weeks
Method: An experiment was carried out in order to confirm the effect of the composition including the Lactobacillus plantarum CJLP475 strain and the Lactobacillus plantarum CJLP243 strain on the immunity and colostrum of sows when the composition was given to the sows, as follows: fifteen sows at 6 weeks before delivery in the same delivery period were selected randomly for each experimental group from the farms in which no PED virus had occurred. All of the sows used in the experiment were inoculated with the PED virus vaccine at 5 weeks and 2 weeks before delivery. The experiment was carried out in a total of four experimental groups, i.e., a control group in which no strain was fed, a group fed with CJLP475 alone, a group fed with CJLP243 alone, and a group fed with the composition including CJLP475 strain and CJLP243 strain. The feed was given in the form of common feeds without antibiotics, and water was given to be consumed freely. The Lactobacillus plantarum CJLP475 strain, the Lactobacillus plantarum CJLP243 strain, and the composition were produced in the form of freeze-dried powder and stored in a refrigerator, and then added on top of the feed when given to the sows so that each sow was given the feed in an amount of 10^10 to 10^11 CFU per day according to the treatment conditions. The sows were fed for a total of 4 weeks, and then the serum and colostrum of the sows were examined using an IgA and IgG ELISA kit.

[2] = Antibiotic susceptibility test with antibiotic discs; settings: for resistance to antibiotics: ampicillin, clindamycin, gentamicin, kanamycin, erythromycin, ampicillin/sulbactam, chloramphenicol, streptomycin discs
Method: The Lactobacillus plantarum CJLP475 strain and the Lactobacillus plantarum CJLP243 strain were independently inoculated into a liquid MRS medium and subjected to a static culture at 37° C. for 24 hours. The thus-cultured bacteria were soaked in sterilized cotton swabs and smeared on a Mueller Hinton II solid medium (Difco), and then antibiotic discs were placed on the medium and incubated at 37° C. for 24 hours. Ampicillin, clindamycin, gentamicin, kanamycin, erythromycin, ampicillin/sulbactam, chloramphenicol, and streptomycin discs (Oxoid, UK) were used as antibiotic discs for the antibiotic test.

PED virus KPEDV9 = assay: Inhibition of PED virus infection by immune cells of weaned piglets fed with the strains; type: in vivo; set-up: key: ++: Complete Inhibition; +: Partial Inhibition; −: Infected; settings: piglets fed 10^10 CFU per day for 3 weeks; for Inhibitory Effect against PED virus infection, mLN, KPEDV9: immune cells of mesenteric lymph nodes; for Inhibitory Effect against PED virus infection, Spin, KPEDV9: immune cells of spleen
Method: (§1) In order to confirm the effect of the composition including the Lactobacillus plantarum CJLP243 strain and the Lactobacillus plantarum CJLP475 strain on the immunity upon feeding, an experiment was carried out as follows:
(§2) Thirty-two 21-day-old weaned piglets were purchased and raised in a container farm for 3 weeks. The feed was given in the form of common crumble feeds without antibiotics. The composition including the Lactobacillus plantarum CJLP475 strain and the Lactobacillus plantarum CJLP243 strain was produced in the form of freeze-dried powder and stored in a refrigerator, and each piglet was given the feed in an amount of 10^10 CFU per day. After 3 weeks of oral administration, four piglets per treatment group were autopsied to collect blood and tissue samples so as to determine the effect of the composition on the immunity of the piglets.
(§3) In order to obtain immune cells from the spleen (Spin) and the mesenteric lymph nodes (mLN), the chopped tissue was powdered using a plunger of a syringe and a 70-micrometer cell strainer (BD Falcon), and then the cells were washed using an RPMI-1640 medium (Roswell Park Memorial Institute-1640, Gibco BRL, Grand Island, N.Y., USA). The remaining RBCs (red blood cells) were removed using an RBC lysis buffer (eBioscience, USA) prior to the last washing step. The immune cells collected after the last washing step were stained with Trypan blue and counted with a hemocytometer to be used.
(§4) For evaluation of the inhibitory effect against viral infection, PED virus was incubated in the same manner as in Example 6 described above, and the content thereof was measured. The immune cells obtained from the weaned piglets without feeding of the composition were used as a negative control.

PED virus SM98 = assay: as above; type: in vivo; set-up: key: ++: Complete Inhibition; +: Partial Inhibition; −: Infected; settings: piglets fed 10^10 CFU per day for 3 weeks; for Inhibitory Effect against PED virus infection, mLN, SM98: immune cells of mesenteric lymph nodes; for Inhibitory Effect against PED virus infection, Spin, SM98: immune cells of spleen
Method: as §1, §2, §3, §4

[3] = Acid-resistance assessment in artificial gastric juice medium (viable cell count); type: physicochemical; settings: artificial gastric juice medium (MRS with pepsin, pH 2.5), 37° C.
Method: An artificial gastric juice medium was prepared for the assessment of acid-resistance. More specifically, the artificial gastric juice medium was prepared by adding pepsin to a liquid MRS medium so as to adjust the pH to 2.5, followed by sterilization.
The strains of Example 1 were subjected to a static culture in a liquid MRS medium at 37° C. for 18 hours after the second subculture. 1% of the pre-incubated strains were inoculated to the artificial gastric juice medium and subjected to a static culture at 37° C., and the culture broth was sampled at 0 hour and 3 hours. The sampled culture broth was serial diluted and smeared on the solid MRS medium, and incubated at 37° C. for 48 hours to measure viable cell count.
(§5) In order to compare the acid-resistance and bile-resistance of the Lactobacillus plantarum CJLP475 strain and the Lactobacillus plantarum CJLP243 strain with those of the conventionally known strains, the acid-resistance and the bile-resistance of the Lactobacillus plantarum standard strain (KCCM12116) obtained from the Korean Culture Center of Microorganisms were assessed in the same manner as the above method.

[4] = test system: red blood cells (sheep blood 5% agar); assay: Hemolytic activity on blood agar plates; type: cell-based; settings: 37° C., 24 hours
Method: […]-Hemolysis is a phenomenon in which phospholipids supplied by red blood cells are hydrolyzed by phospholipid enzymes produced from harmful bacteria, resulting in hemolysis of red blood cells. In order to determine the hemolytic activity of the Lactobacillus plantarum CJLP475 strain and the Lactobacillus plantarum CJLP243 strain, blood agar plates (sheep blood 5% agar, Hanilkomed, Korea) were used. The strains were streaked into the prepared blood agar plates and incubated at 37° C. for 24 hours to confirm the hemolysis.

[5] = Bile-resistance assessment in artificial bile medium (viable cell count); type: physicochemical; settings: artificial bile medium (MRS with 0.5% oxgall), 37° C.
Method: An artificial bile medium was prepared for the assessment of bile-resistance. More specifically, the artificial bile medium was prepared by adding 0.5% oxgall (bull bile) to a liquid MRS medium, followed by sterilization.
The strains of Example 1 were subjected to a static culture in a liquid MRS medium at 37° C. for 18 hours after the second subculture. 1% of the pre-incubated strains were inoculated to the artificial bile medium and subjected to a static culture at 37° C., and the culture broth was sampled at 0 hour and 24 hours. The sampled culture broth was serial diluted and smeared on the solid MRS medium, and incubated at 37° C. for 48 hours to measure viable cell count.
as §5

piglets = assay: Immunity of piglets born from fed sows (IgA ELISA); type: in vivo; settings: 4 days after given colostrum, vs control
Method: In order to confirm the effect of the composition including the Lactobacillus plantarum CJLP475 strain and the Lactobacillus plantarum CJLP243 strain on the immunity of piglets born from the sows fed with the composition, an experiment was carried out using sows as in Example 9. Further, blood was collected from the piglets born from the sows 4 days after given colostrum to carry out an immunological analysis using an IgA ELISA kit.

Substance	inhibitory effect against PED virus infection (microscopy, crystal violet) [1]	total IgA content in the serum of sows (sows)	total IgG content in the serum of sows (sows)	resistance to antibiotics [2]	Inhibitory Effect against PED virus infection, mLN, KPEDV9 (PED virus KPEDV9)	Inhibitory Effect against PED virus infection, Spin, KPEDV9 (PED virus KPEDV9)	Inhibitory Effect against PED virus infection, mLN, SM98 (PED virus SM98)	Inhibitory Effect against PED virus infection, Spin, SM98 (PED virus SM98)	Acid-Resistance Assessment, viable cell count 0 hr [3]	Acid-Resistance Assessment, viable cell count 3 hrs [3]	hemolysis [4]	Bile-Resistance Assessment, viable cell count 0 hr [5]	Bile-Resistance Assessment, viable cell count 24 hrs [5]	other results
Lactobacillus plantarum CJLP243	the virus infection was suppressed	higher than those in the control group	higher than those in the control group	not resistant	++	++	+	++	4.5 × 10^7 CFU/mL	4.4 × 10^7 CFU/mL	did not show hemolysis	3.2 × 10^7 CFU/mL	7.3 × 10^8 CFU/mL	–
Lactobacillus plantarum CJLP475	the virus infection was suppressed	higher than those in the control group	higher than those in the control group	not resistant	++	++	++	++	1.1 × 10^6 CFU/mL	1.1 × 10^7 CFU/mL	did not show hemolysis	1.3 × 10^8 CFU/mL	1.1 × 10^7 CFU/mL	total IgA antibody titer in the colostrum (sows; sow colostrum during delivery): higher; Radius of Growth Inhibition Area Centered Around Antibiotics ([2]; Amp10 (Ampicillin) disc): 7.5 mm; Radius of Growth Inhibition Area Centered Around Antibiotics ([2]; C30 (Clindamycin) disc): 7 mm; Radius of Growth Inhibition Area Centered Around Antibiotics ([2]; CN120 (Gentamicin) disc): 5 mm; Radius of Growth Inhibition Area Centered Around Antibiotics ([2]; DA2 (Streptomycin) disc): 4.5 mm; Radius of Growth Inhibition Area Centered Around Antibiotics ([2]; E15 (Erythromycin) disc): 12 mm; Radius of Growth Inhibition Area Centered Around Antibiotics ([2]; K30 (Kanamycin) disc): 1.5 mm; Radius of Growth Inhibition Area Centered Around Antibiotics ([2]; S10 (Chloramphenicol) disc): 3.5 mm; Radius of Growth Inhibition Area Centered Around Antibiotics ([2]; SAM20 (Ampicillin/Sulbactam) disc): 7 mm; total IgA content in the piglet serum (piglets): higher
